From patent US20120294879A1, “CONSENSUS SEQUENCE FOR INFLUENZA A VIRUS” (priority 2009, published 2012)
Entries after “also recorded” stand apart in the source; their conditions may differ. Like-named read-outs stand apart in the source and are kept apart here.

Legend:
[1] = test system: splenocytes of HLA-B7 (B*0702) transgenic mice; type: cell-based; parameters: key to B7: average IFN-γ spots forming cells per million splenocytes: — represents no positive ELISpot response
[2] = test system: splenocytes of HLA-DR2 (DRB1*1501) transgenic mice; type: cell-based; parameters: key to DR2: average IFN-γ spots forming cells per million splenocytes: — represents no positive ELISpot response
[3] = test system: HLA-A2, -A24, -B7, -DR2, -DR3 and -DR4 transgenic mice; type: cell-based; parameters: key to HLA allele this work (HLA restriction by ELISpot): —represents no positive ELISpot response
HLA alleles = settings: epitopes extracted from the IEDB, humans infected with influenza A, cited from earlier work
[4] = test system: splenocytes of HLA-A24 (A*2402) transgenic mice; type: cell-based; parameters: key to A24: average IFN-γ spots forming cells per million splenocytes: — represents no positive ELISpot response
[5] = test system: splenocytes of HLA-DR4 (DRB1*0401) transgenic mice; type: cell-based; parameters: key: — represents no positive ELISpot response
[6] = test system: splenocytes of HLA-DR3 (DRB1*0301) transgenic mice; type: cell-based; parameters: key to DR3: average IFN-γ spots forming cells per million splenocytes: — represents no positive ELISpot response

| Sequence | B7: average IFN-γ spots forming cells per million splenocytes [1] | DR2: average IFN-γ spots forming cells per million splenocytes [2] | HLA allele this work (HLA restriction by ELISpot) [3] | Published HLA alleles (reported human T cell epitopes) (HLA alleles) | A24: average IFN-γ spots forming cells per million splenocytes [4] | DR4: average IFN-γ spots forming cells per million splenocytes [5] | DR3: average IFN-γ spots forming cells per million splenocytes [6] | DR2: lowest concentration of peptide giving positive ELISpot response in peptide titration [2] | B7: lowest concentration of peptide giving positive ELISpot response in peptide titration [1] | lowest peptide concentration giving positive IFN-γ ELISpot response (apparent functional avidity) [3] | A24: lowest concentration of peptide giving positive ELISpot response in peptide titration [4] | DR3: lowest concentration of peptide giving positive ELISpot response in peptide titration [6] | Published HLA alleles (reported human T cell epitopes) (HLA alleles; listed as NP 402-418) | Published HLA alleles (reported human T cell epitopes) (HLA alleles; listed as M1 169-185) |
| --- | --- | --- | --- | --- | --- | --- | --- | --- | --- | --- | --- | --- | --- | --- |
| ERRNKYLEEHPSAGKDP | — | — | DR4 | DR1, DRB1*0101 | — | 121 ± 1(0.1) IFN-γ spots forming cells per million splenocytes | — |  |  |  |  |  |  |  |
| HENRMVLASTTAKAMEQ | — | — | DR4 | A3, A11, DRB1*0701 | — | 165 ± 1(0.1) IFN-γ spots forming cells per million splenocytes | — |  |  |  |  |  |  |  |
| LEVCFMYSDFHFINEQG | — | 64 ± 11(1) IFN-γ spots forming cells per million splenocytes | DR2 |  | — | — | — | 64 ± 11(1) μg/ml |  |  |  |  |  |  |
| NQPEWFRNILSIAPIMF | 60 ± 8 IFN-γ spots forming cells per million splenocytes | — |  |  | — | — | — |  | (10) μg/ml | solely at the highest peptide concentration |  |  |  |  |
| NTYQWIIRNWETVKIQW | — | 96 ± 9(0.1) IFN-γ spots forming cells per million splenocytes | both HLA class I and II alleles |  | 322 ± 44 IFN-γ spots forming cells per million splenocytes | — | — | 96 ± 9(0.1) μg/ml |  |  | (0.1) μg/ml |  |  |  |
| RCHRGDTQIQTRRSFEI | — | 194 ± 47(0.1) IFN-γ spots forming cells per million splenocytes | DR2 |  | — | — | — | 194 ± 47(0.1) μg/ml |  |  |  |  |  |  |
| RGILEDEQMYQRCCNLF | — | — | both HLA class I and II alleles |  | 78 ± 4 IFN-γ spots forming cells per million splenocytes | — | 181 ± 10(0.1) IFN-γ spots forming cells per million splenocytes |  |  |  | (0.1) μg/ml | 181 ± 10(0.1) μg/ml |  |  |
| RMVLASTTAK [reference compound] |  |  |  | HLA-A3 and -A11 |  |  |  |  |  |  |  |  |  |  |
| SAGQISTQPTFSVQRNL | — | 207 ± 3(0.1) IFN-γ spots forming cells per million splenocytes | DR2 |  | — | — | — | 207 ± 3(0.1) μg/ml |  |  |  |  | DRB1*0101,; also recorded: DRB1*0404 |  |
| TNPLIRHENRMVLASTT | — | 56 ± 5(0.1) IFN-γ spots forming cells per million splenocytes | DR2, DR3 |  | — | — | 120 ± 4(0.1) IFN-γ spots forming cells per million splenocytes | 56 ± 5(0.1) μg/ml |  |  |  | 120 ± 4(0.1) μg/ml |  | B39, DR2, DRB1*0103,; also recorded: DRB1*1101,; also recorded: DRB1*0701, DRB5*0101 |
| TQPTFSVQRNLPFDKTT | — | 110 ± 14(1) IFN-γ spots forming cells per million splenocytes |  |  | — | — | 41 ± 2(10) IFN-γ spots forming cells per million splenocytes | 110 ± 14(1) μg/ml |  | solely at the highest peptide concentration |  | 41 ± 2(10) μg/ml |  |  |
| VLSAFDERRNKYLEEHP |  |  | — | DRB1*0101 |  |  |  |  |  |  |  |  |  |  |
| VLYDKEEIRRIWRQANN | — | — | DR3 | DRB1*1101 | — | — | 501 ± 42(0.1) IFN-γ spots forming cells per million splenocytes |  |  |  |  | 501 ± 42(0.1) μg/ml |  |  |
